Key:
[1] = First-in-human study Part 3, food effect PK; type: in vivo
Excerpt: Part 3 was an open-label, randomized, two-way cross-over, single dose study to assess food effects. In Part 3, each subject participated in a 28 day screening period (Day −29 to −2), 2 baseline (Day −1) and 2 treatment periods, each consisting of a single dose administration on Day 1 followed by safety and PK assessment up to Day 5. Treatment period 2 consisted of a follow-up visit and an end of study evaluation on Day 22 and 40, respectively. The two treatment periods were separated by a wash-out period of at least 18 days (+1-1 day).
Subjects were randomized to one of the 2 treatment sequences (Table 9) in the ratio of 1:1. Definition of treatment sequences for Part 3
Pharmacokinetic samples were obtained in blood and evaluated in all subjects at all dose levels. The samples from placebo subjects were not analyzed. The samples for PK assessments from subjects were collected at time points defined in the study. Compound (I) concentrations were determined in blood by a validated LC-MS/MS method.

[2] = system: mast cell FcγRIII-mediated inflammation; assay: Reverse passive Arthus (RPA) model, skin swelling; type: in vivo; conditions: mouse RPA
Protocol: The duration of the PD effect in skin after single dose was assessed in the reverse passive Arthus (RPA) model of mast cell FcγRIII—mediated inflammation. In this RPA model, a polyclonal IgG antibody is injected locally into the dermis, while the soluble antigen is given systemically by i.v. injection. In this mouse model, mast cell FcγRIII has a dominant role with only minor contributions by the complement system (Hazenbos et al. 1998, journal of immunology, 161(6), pp. 3026; Hazenbos et al., Immunity, 1996, 5(2), pp. 181; Köhl & Gessner 1999, Molecular immunology, 36(13-14), pp. 893; Sylvestre & Ravetch 1996, Immunity, 5(4), pp. 387; Sylvestre & Ravetch 1994, Science, 265(5175), pp. 1095). It has been shown that genetic BTK deficient mice are protected in the passive Arthus skin reaction (Fiedler et al. 2011, blood, 117(4), pp. 1329).
Oral treatment with compound (I) at a single dose of 3, 10, 30 and 100 mg/kg, given 2 hours prior to induction of the RPA response, reduced skin swelling in a dose-related manner. […] (FIG. 2)
In this model, the inhibition of skin swelling was maximal when compound (I) was dosed 2 hours prior to eliciting the Arthus reaction. The effect diminished gradually and reached baseline when the Arthus reaction was triggered 45 hours or later after compound (I) dosing.

[3] = Safety and tolerability in healthy volunteers; type: in vivo, human
Protocol: Standard safety monitoring was used throughout all study parts. A dedicated assessment of potential skin bruising events were included. All vital signs, physical examination and subject history, ECGs, adverse events, and laboratory safety parameters (blood chemistry, hematology and urinalysis) up to 96 hours post last dose as well as PK data from the previous dose group (if available) up to 48 hours post last dose were to be reviewed in a blinded fashion for each cohort before dose escalation. Summary safety reports of reported adverse events, clinical safety laboratory parameters, QTc and heart rate were provided after completion of each dose level.
For the analysis of adverse effects, the Placebo subjects from all SAD and MAD cohorts (2 per cohort) and separated by the SAD and MAD parts were pooled into one Placebo group (n=20 for SAD and n=16 for MAD) to be compared with each single compound (I) dose group (n=6 each) and the total compound (I) group (n=60 for SAD and n=48 for MAD). There were no apparent major differences in the demographic data between placebo and the active groups both for the SAD and MAD populations.

C=CC(=O)N(C)CCOc1c(N)ncnc1-c1cc(F)cc(NC(=O)c2ccc(C3CC3)cc2F)c1C [Compound (I), N-(3-(6-Amino-5-(2-(N-methylacrylamido)ethoxy)pyrimidin-4-yl)-5-fluoro-2-methylphenyl)-4-cyclopropyl-2-fluorobenzamide]
Tmax ([1]; human, whole blood, single oral dose 60 mg, fasted): 1 h
AUC0-24, GeoMean ([1]; single dose 60 mg, FAST): 182.08 ng·h/mL
AUClast, GeoMean ([1]; single dose 60 mg, FAST): 177.17 ng·h/mL
Tlast, GeoMean ([1]; single dose 60 mg, FAST): 9.66 h
Tlast, Mean ([1]; single dose 60 mg, FAST): 10.50 h
Tmax, Mean ([1]; single dose 60 mg, FAST): 1.02 h
Tlast, GeoMean ([1]; single dose 60 mg, FED): 9.25 h
Tlast, Mean ([1]; single dose 60 mg, FED): 9.50 h
higher AUC0-24 fed vs fasted ([1]; single oral dose 60 mg): 1.4 fold
lower Cmax fed vs fasted ([1]; single oral dose 60 mg): 1.25 fold
time between dosing and Arthus trigger at which the effect reached baseline ([2]; single dose): ≥ 45 h
inhibition of skin swelling ([2]; single oral dose 3 mg/kg 2 hours prior to induction): 22.9 % inhibition
inhibition of skin swelling ([2]; single oral dose 10 mg/kg 2 hours prior to induction): 29.2 % inhibition
inhibition of skin swelling ([2]; single oral dose 30 mg/kg 2 hours prior to induction): 73.0 % inhibition
inhibition of skin swelling ([2]; single oral dose 100 mg/kg 2 hours prior to induction): 61.2 % inhibition
serious or severe adverse events related to intake ([3]; 0.5 mg to 600 mg): no serious or severe adverse event
tolerability ([3]; 0.5 mg to 600 mg, single dose or up to 18 days once or twice daily): well tolerated
safety assessment of the FIH study ([3]; dosing up to 600 mg): does not reveal significant safety concerns

From patent US12419889B2, “Methods of treating chronic spontaneous urticaria using a bruton's tyrosine kinase inhibitor” (NOVARTIS AG, priority 2019, dated 2025)
